In the oligonucleotide strings, read from the 5' end, every base follows the letter of its sugar. An asterisk marks phosphorothioate; unmarked linkages are phosphodiester. Other units and linkages are bracketed, terminal groups are in braces. A string of capitals states the bases alone. e = 2'-O-(2-methoxyethyl) (MOE); [5mC] = 5-methylcytosine
Legend:
[1] = tested on: PPARγ; experiment: PPARγ mRNA expression in adipocytes (real-time PCR); type: cell-based, human; details: differentiating adipocytes transfected with oligomeric compound
[2] = tested on: aP2; experiment: aP2 mRNA expression in adipocytes (real-time PCR); type: cell-based, human; details: differentiating adipocytes transfected with oligomeric compound; for aP2 mRNA: Table 75
[3] = tested on: HuVECs; experiment: Endothelial tube formation assay in HuVECs; details: 75 nM oligomeric compound
[4] = tested on: adipocytes; experiment: Triglyceride accumulation assay in adipocytes; type: cell-based, human; details: differentiating adipocytes transfected with oligomeric compound
[5] = tested on: Glut4; experiment: Glut4 mRNA expression in adipocytes (real-time PCR); type: cell-based, human; details: differentiating adipocytes transfected with oligomeric compound
[6] = tested on: HSL; experiment: HSL mRNA expression in adipocytes (real-time PCR); type: cell-based, human; details: differentiating adipocytes transfected with oligomeric compound
[7] = tested on: BJ, B16-F10, T47D, T47Dp53 and HeLa cells; experiment: Cell cycle assay (propidium iodide flow cytometry), cell line panel; type: cell-based; details: 150 nM oligomeric compound, 4.5 μg/ml LIPOFECTIN, after 72 hours, propidium iodide flow cytometry
[8] = tested on: HeLa cells; experiment: Cell cycle assay in HeLa cells; type: cell-based, human; details: HeLa cells, 150 nM oligomeric compound
[9] = 24 hours, relative to untreated control (UTC = 100)
[10] = 48 hours after treatment, relative to untreated control (UTC=100)

Row | Substance | % Activity Relative to UTC (tube formation) ([3]; Table 59) [%] | PPAR gamma mRNA ([1]; Table 75) | aP2 mRNA [2] | % Activity Relative to UTC (tube formation) ([3]; Table 56) [%] | TG (triglyceride accumulation) ([4]; Table 75) | GLUT4 mRNA ([5]; Table 75) | HSL mRNA ([6]; Table 75) | other results
1 | 327960 (antisense eG*eT*e[5mC]*eT*eG*eT*e[5mC]*eA*eA*eT*eT*e[5mC]*eA*eT*eA*eG*eG*eT*e[5mC]*eA*eT) [compound 327960] | 53.3 | – | – | – | – | – | – | PPAR gamma mRNA [1]: 76 percentage of untreated control (UTC); AP2 mRNA [2]: 52 percentage of untreated control (UTC); TG (triglyceride accumulation) [4]: 47 percentage of untreated control (UTC); GLUT4 mRNA [5]: 34 percentage of untreated control (UTC); HSL mRNA [6]: 52 percentage of untreated control (UTC)
2 | 327879 (antisense eA*eA*e[5mC]*eA*eA*eA*eA*eT*e[5mC]*eA*e[5mC]*eT*eA*eG*eT*e[5mC]*eT*eT*e[5mC]*e[5mC]*eA) [compound 327879] | – | 81 percentage of untreated control (UTC) | 103 percentage of untreated control (UTC) | 71.4 | 59 percentage of untreated control (UTC) | 99 percentage of untreated control (UTC) | 103 percentage of untreated control (UTC) | –
3 | 327881 (antisense eA*eA*eA*eA*eG*eA*eG*eA*e[5mC]*e[5mC]*eG*eG*eT*eT*e[5mC]*eA*e[5mC]*eT*eG*eT*eG*eA) [compound 327881] | – | 98 percentage of untreated control (UTC) | 95 percentage of untreated control (UTC) | 50.0 | 91 percentage of untreated control (UTC) | 97 percentage of untreated control (UTC) | 93 percentage of untreated control (UTC) | –
4 | 327937 (antisense eG*eA*eT*eT*e[5mC]*eA*e[5mC]*eA*eA*e[5mC]*eA*e[5mC]*e[5mC]*eA*eG*e[5mC]*eT) [compound 327937] | – | – | – | – | – | – | – | PPAR gamma mRNA [1]: 92 percentage of untreated control (UTC); AP2 mRNA [2]: 76 percentage of untreated control (UTC); % Activity Relative to UTC (tube formation) ([3]; Table 58): 88.9%; TG (triglyceride accumulation) [4]: 81 percentage of untreated control (UTC); GLUT4 mRNA [5]: 63 percentage of untreated control (UTC); HSL mRNA [6]: 77 percentage of untreated control (UTC)
5 | 327898 (antisense eG*eT*eA*eG*eT*eG*e[5mC]*eT*eT*eT*e[5mC]*eT*eA*e[5mC]*eT*eT*eT*eA*eT*eG) [compound 327898] | – | 101 percentage of untreated control (UTC) | 96 percentage of untreated control (UTC) | 100.0 | 102 percentage of untreated control (UTC) | 82 percentage of untreated control (UTC) | 92 percentage of untreated control (UTC) | –
6 | 327962 (antisense eG*e[5mC]*eT*eG*eA*eG*eA*eG*eT*eG*eT*eA*eG*eG*eA*eT*eG*eT*eT*eT*eA*e[5mC]*eA) [compound 327962] | 53.3 | 80 percentage of untreated control (UTC) | 75 percentage of untreated control (UTC) | – | 64 percentage of untreated control (UTC) | 58 percentage of untreated control (UTC) | 77 percentage of untreated control (UTC) | –
7 | 327943 (antisense eT*eA*eT*e[5mC]*eT*eG*e[5mC]*eA*e[5mC]*eT*eA*eG*eA*eT*eG*e[5mC]*eA*e[5mC]*e[5mC]*eT*eT*eA) [compound 327943] | – | 98 percentage of untreated control (UTC) | 106 percentage of untreated control (UTC) | – | 112 percentage of untreated control (UTC) | 87 percentage of untreated control (UTC) | 109 percentage of untreated control (UTC) | % Activity Relative to UTC (tube formation) ([3]; Table 58): 81.5%
8 | 327966 (antisense eA*eT*e[5mC]*e[5mC]*eA*eA*eT*e[5mC]*eA*eG*eT*eT*e[5mC]*e[5mC]*eT*eG*eA*eT*eG*e[5mC]*eA*eG*eT*eA) [compound 327966] | 40.0 | 77 percentage of untreated control (UTC) | 53 percentage of untreated control (UTC) | – | 52 percentage of untreated control (UTC) | 43 percentage of untreated control (UTC) | 56 percentage of untreated control (UTC) | –
9 | 327891 (antisense eG*eG*e[5mC]*e[5mC]*eG*eT*eG*eA*e[5mC]*eT*eG*eG*eA*eG*eA*e[5mC]*eT*eG*eT*eT*eA) [compound 327891] | – | 50 percentage of untreated control (UTC) | 56 percentage of untreated control (UTC) | 50.0 | 22 percentage of untreated control (UTC) | 47 percentage of untreated control (UTC) | 52 percentage of untreated control (UTC) | –
10 | 327929 (antisense eG*eA*eA*e[5mC]*eA*eG*eA*eT*eA*eG*eT*e[5mC]*eT*eA*eA*eA*e[5mC]*eA*e[5mC]*eT*eG*eG*eG) [compound 327929] | – | 71 percentage of untreated control (UTC) | 62 percentage of untreated control (UTC) | – | 65 percentage of untreated control (UTC) | 49 percentage of untreated control (UTC) | 68 percentage of untreated control (UTC) | % Activity Relative to UTC (tube formation) ([3]; Table 58): 51.9%
11 | 327908 (antisense e[5mC]*eA*eA*eT*eG*e[5mC]*eA*eA*e[5mC]*eT*eA*e[5mC]*eA*eA*eT*eG*e[5mC]*eA*e[5mC]) [compound 327908] | – | – | – | – | – | – | – | G1 (percentage of cells in phase of the cell cycle) [7]: 55.4%; G2/M (percentage of cells in phase of the cell cycle) [7]: 15.3%; S (percentage of cells in phase of the cell cycle) [7]: 29.2%; SubG1 (percentage of cells in phase of the cell cycle) [7]: 5.6%; aneuploid (percentage of cells) [7]: 13.1%; % Activity Relative to UTC (tube formation) ([3]; Table 57): 103.5%; % cells aneuploid [8, 9]: 114%; % cells in cell cycle phase G1 [8, 9]: 98%; % cells in cell cycle phase G2/M [8, 9]: 106%; % cells in cell cycle phase S [8, 9]: 99%; % cells in cell cycle phase subG1 [8, 9]: 138%; % cells in cell cycle phase: G1 [8, 10]: 99%; % cells in cell cycle phase: G2/M [8, 10]: 105%; % cells in cell cycle phase: S [8, 10]: 98%; % cells in cell cycle phase: aneuploid [8, 10]: 93%; % cells in cell cycle phase: subG1 [8, 10]: 61%
12 | 327968 (antisense e[5mC]*eA*eA*eT*eG*e[5mC]*eA*eA*e[5mC]*eA*eG*e[5mC]*eA*eA*eT*eG*e[5mC]*eA*e[5mC]) [compound 327968] | 93.3 | 79 percentage of untreated control (UTC) | 67 percentage of untreated control (UTC) | – | 94 percentage of untreated control (UTC) | 85 percentage of untreated control (UTC) | 79 percentage of untreated control (UTC) | –
13 | 327953 (antisense eA*eG*eA*eA*eT*eT*eG*e[5mC]*eG*eT*eT*eT*eG*eG*eA*e[5mC]*eA*eA*eT*e[5mC]*eA) [compound 327953] | 53.3 | – | – | – | – | – | – | PPAR gamma mRNA [1]: 90 percentage of untreated control (UTC); AP2 mRNA [2]: 92 percentage of untreated control (UTC); TG (triglyceride accumulation) [4]: 94 percentage of untreated control (UTC); GLUT4 mRNA [5]: 112 percentage of untreated control (UTC); HSL mRNA [6]: 94 percentage of untreated control (UTC)
14 | 327914 (antisense eG*e[5mC]*e[5mC]*e[5mC]*eT*eT*eT*eT*eA*eA*e[5mC]*eA*eT*eT*eG*e[5mC]*eA*e[5mC]*eT*eG) [compound 327914] | – | – | – | – | – | – | – | G1 (percentage of cells in phase of the cell cycle) [7]: 55.8%; G2/M (percentage of cells in phase of the cell cycle) [7]: 15.3%; S (percentage of cells in phase of the cell cycle) [7]: 28.9%; SubG1 (percentage of cells in phase of the cell cycle) [7]: 8.5%; aneuploid (percentage of cells) [7]: 16.2%; % Activity Relative to UTC (tube formation) ([3]; Table 57): 82.8%
15 | 327894 (antisense eA*eT*eA*e[5mC]*eA*eT*eA*e[5mC]*eT*eT*e[5mC]*eT*eT*eT*eA*e[5mC]*eA*eT*eT*e[5mC]*e[5mC]*eA) [compound 327894] | – | – | – | 100.0 | – | – | – | –
